Source: publication PMC11470957, “Principles of paralog-specific targeted protein degradation engaging the C-degron E3 KLHDC2” (Nature Communications, 2024)
Read-outs that look alike come from different tables or passages of the source.

Experiments:
BRD2 = BRD2 (Homo sapiens, UniProt P25440); assay: Western blot of BRD2 levels after cellular dosing
[1] = tested on: BD2 domain from BRD2, BRD3, or BRD4 / neddylated CRL2^KLHDC2; assay: Pulse-chase PROTAC-dependent ubiquitylation of BRD BD2 domains by neddylated CRL2^KLHDC2; settings: prodrug tested
BRD3 = BRD3 (Homo sapiens, UniProt Q15059); assay: Western blot of BRD3 levels after cellular dosing
[2] = U2OS, read-out: BRD2 level, Western blot quantification (DMSO = 100), Fig S6d, U2OS KO/rescue Dose Response
[3] = read-out: BRD2 level, Western blot quantification (DMSO = 100), Fig S6e, PC3 KO/rescue Dose Response

BRD2, sequence (P25440 whole entry, the tested form may be a part): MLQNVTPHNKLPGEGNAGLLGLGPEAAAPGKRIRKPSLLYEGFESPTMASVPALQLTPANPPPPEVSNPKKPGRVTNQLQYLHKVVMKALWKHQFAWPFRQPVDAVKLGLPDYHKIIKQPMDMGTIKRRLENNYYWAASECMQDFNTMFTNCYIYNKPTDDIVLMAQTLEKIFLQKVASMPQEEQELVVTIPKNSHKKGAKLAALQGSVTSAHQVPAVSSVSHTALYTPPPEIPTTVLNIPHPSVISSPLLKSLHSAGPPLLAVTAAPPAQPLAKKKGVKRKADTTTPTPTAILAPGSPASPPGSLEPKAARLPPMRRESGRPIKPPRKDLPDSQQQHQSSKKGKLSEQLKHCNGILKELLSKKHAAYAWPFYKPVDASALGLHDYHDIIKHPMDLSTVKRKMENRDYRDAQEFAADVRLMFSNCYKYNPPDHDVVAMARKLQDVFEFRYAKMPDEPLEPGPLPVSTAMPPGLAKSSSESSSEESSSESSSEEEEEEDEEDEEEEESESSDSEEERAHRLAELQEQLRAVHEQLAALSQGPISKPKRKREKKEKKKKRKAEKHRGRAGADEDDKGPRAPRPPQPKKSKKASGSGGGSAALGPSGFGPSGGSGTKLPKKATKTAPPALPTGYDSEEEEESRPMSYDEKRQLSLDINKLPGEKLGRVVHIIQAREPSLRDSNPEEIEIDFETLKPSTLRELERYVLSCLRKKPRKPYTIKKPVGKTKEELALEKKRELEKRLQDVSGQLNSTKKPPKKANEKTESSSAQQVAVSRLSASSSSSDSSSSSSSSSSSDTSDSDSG
BRD3, sequence (Q15059 whole entry): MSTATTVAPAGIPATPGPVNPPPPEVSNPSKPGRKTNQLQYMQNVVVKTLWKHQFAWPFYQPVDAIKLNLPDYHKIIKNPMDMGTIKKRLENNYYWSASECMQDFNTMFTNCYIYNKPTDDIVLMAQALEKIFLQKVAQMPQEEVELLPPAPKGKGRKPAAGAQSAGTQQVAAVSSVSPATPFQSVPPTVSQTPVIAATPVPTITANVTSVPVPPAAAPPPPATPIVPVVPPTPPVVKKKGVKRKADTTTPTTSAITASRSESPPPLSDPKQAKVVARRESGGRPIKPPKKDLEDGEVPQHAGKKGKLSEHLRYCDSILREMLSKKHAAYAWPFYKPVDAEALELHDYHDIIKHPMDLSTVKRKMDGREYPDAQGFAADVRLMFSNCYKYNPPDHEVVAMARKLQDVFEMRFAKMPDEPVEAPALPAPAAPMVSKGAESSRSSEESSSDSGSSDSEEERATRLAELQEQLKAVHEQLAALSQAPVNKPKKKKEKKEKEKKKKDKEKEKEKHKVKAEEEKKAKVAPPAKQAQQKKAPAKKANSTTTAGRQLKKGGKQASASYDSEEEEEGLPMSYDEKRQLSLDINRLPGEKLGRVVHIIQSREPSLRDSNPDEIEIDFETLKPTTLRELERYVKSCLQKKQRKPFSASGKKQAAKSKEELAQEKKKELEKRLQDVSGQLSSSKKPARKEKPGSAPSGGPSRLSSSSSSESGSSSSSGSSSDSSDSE

Compound: COC(=O)CNC(=O)Cc1csc(-c2ccc3cccc(OCCN4CCN(C(=O)C[C@@H]5N=C(c6ccc(Cl)cc6)c6c(sc(C)c6C)-n6c(C)nnc65)CC4)c3c2)n1 [SJ46420]
- remaining activity at 1 µM (BRD2; SK-BR-3, 4 h, read-out: BRD2 level, Western blot quantification (DMSO = 100), Fig S6g, SKBR3 Time course, 1 uM, 4hr): 79.4%
- remaining activity at 5 µM (BRD2; SK-BR-3, 4 h, read-out: BRD2 level, Western blot quantification (DMSO = 100), Fig S6g, SKBR3 Time course, 5 uM, 4hr): 79.5%
- remaining activity at 1 µM (BRD2; SK-BR-3, 8 h, read-out: BRD2 level relative to DMSO (100%), SKBR3, 1µM, 8hr, Fig S6g): 81 ± 7.6%
- remaining activity at 5 µM (BRD2; SK-BR-3, 8 h, read-out: BRD2 level relative to DMSO (100%), SKBR3, 5µM, 8hr, Fig S6g): 90 ± 9.8%
- remaining activity at 1 µM (BRD2; SK-BR-3, 8 h, read-out: BRD2 level, Western blot quantification (DMSO = 100), Fig S6g, SKBR3 Time course, 1 uM, 8hr): 76.3%
- remaining activity at 5 µM (BRD2; SK-BR-3, 8 h, read-out: BRD2 level, Western blot quantification (DMSO = 100), Fig S6g, SKBR3 Time course, 5 uM, 8hr): 97.9%
- remaining activity at 5 µM (BRD2; SK-BR-3, read-out: BRD2 level, Western blot quantification (DMSO = 100), Fig S6i, SKBR3, 5uM): 90.6%
- BRD2 Dmax (BRD2; U2OS KO/Rescue, 24 h dose): ~ 100%
- remaining activity at 5 µM (BRD2; U2OS, 2 h, read-out: BRD2 level relative to DMSO (100%), U2OS, 5µM, 2hr, Fig S6h): 102 ± 6.9%
- remaining activity at 5 µM (BRD2; U2OS, 2 h, read-out: BRD2 level, Western blot quantification (DMSO = 100), Fig S6h, U2OS Time course, 5uM, 2hr): 108%
- remaining activity at 5 µM (BRD2; U2OS, 4 h, read-out: BRD2 level relative to DMSO (100%), U2OS, 5µM, 4hr, Fig S6h): 104 ± 6.4%
- remaining activity at 5 µM (BRD2; U2OS, 4 h, read-out: BRD2 level, Western blot quantification (DMSO = 100), Fig S6h, U2OS Time course, 5uM, 4hr): 109%
- remaining activity at 5 µM (BRD2; U2OS, 8 h, read-out: BRD2 level relative to DMSO (100%), U2OS, 5µM, 8hr, Fig S6i): 120 ± 3.4%
- remaining activity at 5 µM (BRD2; U2OS, 8 h, read-out: BRD2 level relative to DMSO (100%), U2OS, 5µM, 8hr, Fig S6h): 106 ± 8.4%
- remaining activity at 5 µM (BRD2; U2OS, 8 h, read-out: BRD2 level, Western blot quantification (DMSO = 100), Fig S6h, U2OS Time course, 5uM, 8hr): 112%
- remaining activity at 5 µM (BRD2; U2OS, 24 h, read-out: BRD2 level relative to DMSO (100%), U2OS DC2KO (KLHDC2 knockout), 5µM, 24 h, Fig 6b): 77 ± 2%
- remaining activity at 0.16 µM (BRD2; U2OS, 24 h, read-out: BRD2 level relative to DMSO (100%), U2OS KO/Rescue, 0.16µM, 24 h, Fig S6d): 94 ± 6.9%
- remaining activity at 0.31 µM (BRD2; U2OS, 24 h, read-out: BRD2 level relative to DMSO (100%), U2OS KO/Rescue, 0.31µM, 24 h, Fig S6d): 77 ± 6.6%
- remaining activity at 0.63 µM (BRD2; U2OS, 24 h, read-out: BRD2 level relative to DMSO (100%), U2OS KO/Rescue, 0.63µM, 24 h, Fig S6d): 63 ± 3.8%
- remaining activity at 1 µM (BRD2; U2OS, 24 h, read-out: BRD2 level relative to DMSO (100%), U2OS KO/Rescue, 1µM + co-dosing 1µM MLN4924, 24 h, Fig 6d): 350 ± 120%
- remaining activity at 1 µM (BRD2; U2OS, 24 h, read-out: BRD2 level relative to DMSO (100%), U2OS KO/Rescue, 1µM, 24 h, Fig 6c): 88 ± 8.4%
- remaining activity at 1 µM (BRD2; U2OS, 24 h, read-out: BRD2 level relative to DMSO (100%), U2OS KO/Rescue, 1µM, 24 h, Fig 6d): 68 ± 17%
- remaining activity at 1.3 µM (BRD2; U2OS, 24 h, read-out: BRD2 level relative to DMSO (100%), U2OS KO/Rescue, 1.3µM, 24 h, Fig S6d): 54 ± 6.7%
- remaining activity at 2.5 µM (BRD2; U2OS, 24 h, read-out: BRD2 level relative to DMSO (100%), U2OS KO/Rescue, 2.5µM, 24 h, Fig S6d): 37 ± 9.7%
- remaining activity at 5 µM (BRD2; U2OS, 24 h, read-out: BRD2 level relative to DMSO (100%), U2OS KO/Rescue, 5µM, 24 h, Fig S6d): 12 ± 2.2%
- remaining activity at 5 µM (BRD2; U2OS, 24 h, read-out: BRD2 level relative to DMSO (100%), U2OS, 5µM, 24 h, Fig 6b): 87 ± 5%
- remaining activity at 5 µM (BRD2; U2OS, 24 h, read-out: BRD2 level relative to DMSO (100%), U2OS, 5µM, 24hr, Fig S6h): 77 ± 4.3%
- remaining activity at 5 µM (BRD2; U2OS, 24 h, read-out: BRD2 level, Western blot quantification (DMSO = 100), Fig S6h, U2OS Time course, 5uM, 24hr): 79.8%
- remaining activity at 1.59176 µM (BRD2; U2OS, read-out: BRD2 (DMSO = 100), U2OS KO/Rescue cells, Log SJ46420 (uM) 1.59176, Rep1, Rep2): 102%
- remaining activity at 1.89279 µM (BRD2; U2OS, read-out: BRD2 (DMSO = 100), U2OS KO/Rescue cells, Log SJ46420 (uM) 1.89279, Rep1, Rep2): 99%
- remaining activity at 2.19382 µM (BRD2; U2OS, read-out: BRD2 (DMSO = 100), U2OS KO/Rescue cells, Log SJ46420 (uM) 2.19382, Rep1, Rep2): 82.2%
- remaining activity at 2.49485 µM (BRD2; U2OS, read-out: BRD2 (DMSO = 100), U2OS KO/Rescue cells, Log SJ46420 (uM) 2.49485, Rep1, Rep2): 66.6%
- remaining activity at 2.79588 µM (BRD2; U2OS, read-out: BRD2 (DMSO = 100), U2OS KO/Rescue cells, Log SJ46420 (uM) 2.79588, Rep1, Rep2): 49.5%
- remaining activity at 3.09691 µM (BRD2; U2OS, read-out: BRD2 (DMSO = 100), U2OS KO/Rescue cells, Log SJ46420 (uM) 3.09691, Rep1, Rep2): 30.5%
- remaining activity at 3.39794 µM (BRD2; U2OS, read-out: BRD2 (DMSO = 100), U2OS KO/Rescue cells, Log SJ46420 (uM) 3.39794, Rep1, Rep2): 13.8%
- remaining activity at 3.69897 µM (BRD2; U2OS, read-out: BRD2 (DMSO = 100), U2OS KO/Rescue cells, Log SJ46420 (uM) 3.69897, Rep1, Rep2): 1.16%
- Dmax (BRD2; U2OS, read-out: BRD2 Dmax, U2OS KO/Rescue, 24 h dose): 99.3%
- remaining activity at 5 µM (BRD2; U2OS, read-out: BRD2 level, Western blot quantification (DMSO = 100), Fig 6b, U2OS, 5 uM): 90.7%
- remaining activity at 5 µM (BRD2; U2OS, read-out: BRD2 level, Western blot quantification (DMSO = 100), Fig S6i, U2OS, 5uM): 118%
- remaining activity at 0.156 µM (BRD2; [2]): 83.3%
- remaining activity at 0.313 µM (BRD2; [2]): 100%
- remaining activity at 0.625 µM (BRD2; [2]): 81.2%
- remaining activity at 1.25 µM (BRD2; [2]): 85.7%
- remaining activity at 2.5 µM (BRD2; U2OS, read-out: BRD2 level, Western blot quantification (DMSO = 100), Fig S6d, U2OS KO/rescue Dose Response, 2.5 uM): 86.6%
- remaining activity at 5 µM (BRD2; U2OS, read-out: BRD2 level, Western blot quantification (DMSO = 100), Fig S6d, U2OS KO/rescue Dose Response, 5 uM): 86.5%
- Dmax (BRD2; read-out: BRD2 Dmax, PC3, 24 h dose): 19.5%
- remaining activity at 5 µM (BRD2; read-out: BRD2 level, Western blot quantification (DMSO = 100), Fig 6b, KO/Rescue, 5 uM): 78.2%
- remaining activity at 0.156 µM (BRD2; [3]): 99%
- remaining activity at 0.313 µM (BRD2; [3]): 82.2%
- remaining activity at 0.625 µM (BRD2; [3]): 66.6%
- remaining activity at 1.25 µM (BRD2; [3]): 49.5%
- remaining activity at 2.5 µM (BRD2; read-out: BRD2 level, Western blot quantification (DMSO = 100), Fig S6e, PC3 KO/rescue Dose Response, 2.5 uM): 30.5%
- remaining activity at 5 µM (BRD2; read-out: BRD2 level, Western blot quantification (DMSO = 100), Fig S6e, PC3 KO/rescue Dose Response, 5 uM): 13.8%
- remaining activity at 10 µM (BRD2; read-out: BRD2 level, Western blot quantification (DMSO = 100), Fig S6e, PC3 KO/rescue Dose Response, 10uM): 1.16%
- ubiquitylation of BRD3BD2 in reconstituted biochemical assays [1]: unable to promote ubiquitylation
- selectivity for BRD3 over BRD4 (DC50) (BRD3; 22Rv1): ~ 44 fold
- remaining activity at 0.16 µM (BRD3; 22Rv1, 24 h, read-out: BRD3 level relative to DMSO (100%), 22Rv1, 0.16µM, 24 h, Fig S6f): 74 ± 4.4%
- remaining activity at 0.31 µM (BRD3; 22Rv1, 24 h, read-out: BRD3 level relative to DMSO (100%), 22Rv1, 0.31µM, 24 h, Fig S6f): 54 ± 11%
